Source: patent publication US8906904B2, “Alkoxy pyrazoles as soluble guanylate cyclase activators” (Boehringer Ingelheim International GmbH, priority 2012, dated 2014)
In brackets after ≈: the same amount, converted by molar mass.

Experiment: Assessment of solubility (McIlvaine buffers, 24 h shake, UPLC-UV)
Assay type: physicochemical
Details: kinetic from dmso stock
Experimental: Solubility is measured by the following method.
100 uL, 10 mM DMSO stock solution of each compound is prepared in a 96 well plate format. The experiment is done in single determination at 3 pH values (2.2, 4.5 and 6.8). For each pH and one reference, 40 uL of each compound is needed.
McIlvaine pH 2.2: To 2.076 g citric acid monohydrate and 0.043 g Na2HPO4×2H2O add 100 ml deionized water
McIlvaine pH 4.5: To 1.166 g citric acid monohydrate and 1.585 g Na2HPO4×2H2O add 100 ml deionized water
McIlvaine pH 6.8: To 0.476 g citric acid monohydrate and 2.753 g Na2HPO4×2H2O add 100 ml deionized water
With a suitable liquid handling device (Multipette® or a liquid handler) 390 uL of each buffer solution and 10 uL of compound is added to each well of a 96 deep well plate. The plates are covered firmly and shaken for 24 h on an over head shaker (at 54 RPM) at room temperature. The DMSO content in the final buffer is 2.5% v/v.
After 24 h the plates are centrifuged to remove droplets on the lid before opening (for ˜5 min at 2500 RPM).
The filtration is done under vacuum with Millipore 96 well filter plate. Filtrate is collected in a deep well plate and transferred to a suitable plate for UPLC analysis.
The reference plate is prepared by adding 10 uL of compound to 390 uL of 50:50 acetonitrile/water in a 96 deep well plate and transferred to a suitable plate for UPLC analysis. Wells are checked visually for precipitation, any presence noted under comments in reported results.
The samples are measured with UPLC-UV using the chromatographic method described below.
Waters Empower®2 software is used for generating Sample Sets (according to the plate layout), Sample Set Methods and Instrument Methods.
One Sample Set comprises the methods for three 96 well plates (one reference plate and two sample plates, and includes one Sample Set Method and one Instrument Method).
3. Data Processing and Analysis
The UV chromatograms collected at 254 nm are integrated and processed.
It is assumed that the compound is completely dissolved in the reference solution (50:50 acetonitrile/water)

| SMILES | solubility at 24 h (pH 2.2, aqueous buffer) | solubility at 24 h (pH 4.5, aqueous buffer) | solubility at 24 h (pH 6.8, aqueous buffer) |
| --- | --- | --- | --- |
| CCOc1c(C(=O)O)cnn1-c1cccc(-c2cccc(C)c2OCc2ccc3c(c2)OCCN(C2CCOCC2)C3)n1 [Compound 131] | 130 µg/mL (≈ 222 µM) | 97 µg/mL (≈ 166 µM) | 110 µg/mL (≈ 188 µM) |
| COCCOc1c(C(=O)O)cnn1-c1cccc(-c2cccc(C)c2OCc2ccc3c(c2C)CCN(C2CCOCC2)C3)n1 [Compound 151] | 110 µg/mL (≈ 180 µM) | 98 µg/mL (≈ 160 µM) | 85 µg/mL (≈ 139 µM) |
| CCOc1c(C(=O)O)cnn1-c1cccc(-c2cccc(C)c2OCc2ccc3c(c2C)CCN(CC2CCOCC2)C3)n1 [Compound 172] | 110 µg/mL (≈ 184 µM) | 87 µg/mL (≈ 146 µM) | 85 µg/mL (≈ 142 µM) |
| COc1c(C(=O)O)cnn1-c1cccc(-c2cccc(C)c2OCc2ccc3c(c2)C(C)(C)CN(C2COC2)C3)n1 [Compound 10] | 94 µg/mL (≈ 169 µM) | 50 µg/mL (≈ 90.1 µM) | 73 µg/mL (≈ 132 µM) |
| Cc1cccc(-c2cccc(-n3ncc(C(=O)O)c3OC(C)C)n2)c1OCc1ccc2c(c1)CCN([C@H]1CCCOC1)C2 [Compound 115] | 89 µg/mL (≈ 153 µM) | 71 µg/mL (≈ 122 µM) | 43 µg/mL (≈ 73.8 µM) |
| COc1c(C(=O)O)cnn1-c1cccc(-c2cccc(C)c2OCc2cc3c(c(C(F)(F)F)c2)CN(C2CCOCC2)CC3)n1 [Compound 158] | 64 µg/mL (≈ 103 µM) | 43 µg/mL (≈ 69.1 µM) | 41 µg/mL (≈ 65.8 µM) |
| CCOc1c(C(=O)O)cnn1-c1cccc(-c2cccc(C)c2OCc2ccc3c(c2C)CCN(C2COC(C)(C)OC2)C3)n1 [Compound 155] | 60 µg/mL (≈ 97.9 µM) | 66 µg/mL (≈ 108 µM) | 73 µg/mL (≈ 119 µM) |
| COc1c(C(=O)O)cnn1-c1cccc(-c2cccc(C)c2OCc2ccc3c(c2C)CCN(C2COC2)CC3)n1 [Compound 176] | 100 µg/mL (≈ 180 µM) | 77 µg/mL (≈ 139 µM) | 43 µg/mL (≈ 77.5 µM) |
| CCOc1c(C(=O)O)cnn1-c1cccc(-c2cccc(C)c2OCc2ccc3c(c2C)CCN(C(=O)C2CCOCC2)C3)n1 [Compound 147, 5-Ethoxy-1-(6-{3-methyl-2-[5-methyl-2-(tetrahydro-pyran-4-carbonyl)-1,2,3,4-tetrahydro-isoquinolin-6-ylmethoxy]-phenyl}-pyridin-2-yl)-1H-pyrazole-4-carboxylic acid] | 1.2 µg/mL (≈ 1.96 µM) | 3.1 µg/mL (≈ 5.08 µM) | 75 µg/mL (≈ 123 µM) |
| COc1c(C(=O)O)cnn1-c1cccc(-c2cccc(C)c2OCc2ccc3c(c2)CCN(CC(C)(C)C)C3)n1 [Compound 14] | 110 µg/mL (≈ 203 µM) | 82 µg/mL (≈ 152 µM) | 76 µg/mL (≈ 141 µM) |
| COc1c(C(=O)O)cnn1-c1cccc(-c2cccc(C)c2OCc2ccc3c(c2C)CCN([C@H]2CCOC2)C3)n1 [Compound 105] | 93 µg/mL (≈ 168 µM) | 72 µg/mL (≈ 130 µM) | 75 µg/mL (≈ 135 µM) |
| CCOc1c(C(=O)O)cnn1-c1cccc(-c2cccc(C)c2OCc2ccc3c(c2C)CCN(C[C@H]2CCCOC2)C3)n1 [Compound 153] | 87 µg/mL (≈ 146 µM) | 67 µg/mL (≈ 112 µM) | 65 µg/mL (≈ 109 µM) |
| COc1c(C(=O)O)cnn1-c1cccc(-c2cccc(C)c2OCc2cc(C)c3c(c2C)CN(C2CCOCC2)C3)n1 [Compound 145] | 110 µg/mL (≈ 193 µM) | 92 µg/mL (≈ 162 µM) | 94 µg/mL (≈ 165 µM) |
| COc1c(C(=O)O)cnn1-c1cccc(-c2cccc(C)c2OCc2cc(C)c3c(c2)CCN(C2CCOCC2)C3)n1 [Compound 171] | 120 µg/mL (≈ 211 µM) | 99 µg/mL (≈ 174 µM) | 98 µg/mL (≈ 172 µM) |
| COc1c(C(=O)O)cnn1-c1cccc(-c2cccc(C)c2OCc2ccc3c(c2)CCN(C(C)C)C3)n1 [Compound 13] | 100 µg/mL (≈ 195 µM) | 84 µg/mL (≈ 164 µM) | 87 µg/mL (≈ 170 µM) |
| CCOc1c(C(=O)O)cnn1-c1cccc(-c2cccc(C)c2OCc2ccc3c(c2)CCN([C@@H]2CCOC2)C3)n1 [Compound 112] | 110 µg/mL (≈ 198 µM) | 78 µg/mL (≈ 141 µM) | 94 µg/mL (≈ 169 µM) |

| SMILES | solubility at 24 h (pH 2.2, aqueous buffer) | solubility at 24 h (pH 4.5, aqueous buffer) | solubility at 24 h (pH 6.8, aqueous buffer) |
| --- | --- | --- | --- |
| CCOc1c(C(=O)O)cnn1-c1cccc(-c2cccc(C)c2OCc2ccc3c(c2C)CCN(C[C@H]2COCCO2)C3)n1 [Compound 170] | 120 µg/mL (≈ 200 µM) | 96 µg/mL (≈ 160 µM) | 95 µg/mL (≈ 159 µM) |
| CCOc1c(C(=O)O)cnn1-c1cccc(-c2cccc(C)c2OCc2ccc3c(c2C)CCN(CCOCCO)C3)n1 [Compound 168] | 110 µg/mL (≈ 187 µM) | 90 µg/mL (≈ 153 µM) | 88 µg/mL (≈ 150 µM) |
| CCOc1c(C(=O)O)cnn1-c1cccc(-c2cccc(C)c2OCc2ccc3c(c2C)CCN(C2COC2)C3)n1 [Compound 164] | 100 µg/mL (≈ 180 µM) | 72 µg/mL (≈ 130 µM) | 93 µg/mL (≈ 168 µM) |
| CCOc1c(C(=O)O)cnn1-c1cccc(-c2cccc(C)c2OCc2ccc3c(c2C)CCN([C@H]2CCOC2)C3)n1 [Compound 125] | 110 µg/mL (≈ 193 µM) | 76 µg/mL (≈ 134 µM) | 78 µg/mL (≈ 137 µM) |
| COc1c(C(=O)O)cnn1-c1cccc(-c2cccc(C)c2OCc2ccc3c(c2)CCN([C@H]2CC[C@]4(CCCO4)CC2)C3)n1 [Compound 102] | 99 µg/mL (≈ 163 µM) | 81 µg/mL (≈ 133 µM) | 82 µg/mL (≈ 135 µM) |
| COc1c(C(=O)O)cnn1-c1cccc(-c2cccc(C)c2OCc2cc3c(cc2C)CN(C2CCOCC2)C3)n1 [Compound 143] | 160 µg/mL (≈ 288 µM) | 150 µg/mL (≈ 270 µM) | 160 µg/mL (≈ 288 µM) |
| CCOc1c(C(=O)O)cnn1-c1cccc(-c2cccc(C)c2OCc2ccc3c(c2C)CCN([C@@H]2CCCOC2)C3)n1 [Compound 128] | 93 µg/mL (≈ 160 µM) | 77 µg/mL (≈ 132 µM) | 78 µg/mL (≈ 134 µM) |
| COc1c(C(=O)O)cnn1-c1cccc(-c2cccc(C)c2OCc2cc3c(cc2C)CN(C2CCOCC2)CC3)n1 [Compound 121] | 110 µg/mL (≈ 193 µM) | 90 µg/mL (≈ 158 µM) | 93 µg/mL (≈ 164 µM) |
| CCOc1c(C(=O)O)cnn1-c1cccc(-c2cccc(C)c2OCc2ccc3c(c2C)CCN(C[C@H]2COC(C)(C)O2)C3)n1 [Compound 179] | 43 µg/mL (≈ 70.2 µM) | 92 µg/mL (≈ 150 µM) | 93 µg/mL (≈ 152 µM) |
| CCOc1c(C(=O)O)cnn1-c1cccc(-c2cccc(C)c2OCc2ccc3c(c2C(F)(F)F)CCN(C2CCOCC2)C3)n1 [Compound 165] | 120 µg/mL (≈ 188 µM) | 58 µg/mL (≈ 91.1 µM) | 39 µg/mL (≈ 61.3 µM) |
| COc1c(C(=O)O)cnn1-c1cccc(-c2cccc(C)c2OCc2ccc3c(c2C)CCN(C[C@@H]2COCCO2)C3)n1 [Compound 139] | 130 µg/mL (≈ 222 µM) | 110 µg/mL (≈ 188 µM) | 120 µg/mL (≈ 205 µM) |
| COc1c(C(=O)O)cnn1-c1cccc(-c2cccc(C)c2OCc2ccc3c(c2C)CCN([C@H]2CCCOC2)C3)n1 [Compound 141] | 130 µg/mL (≈ 229 µM) | 110 µg/mL (≈ 193 µM) | 110 µg/mL (≈ 193 µM) |
| COc1c(C(=O)O)cnn1-c1cccc(-c2cccc(C)c2OCc2ccc3c(c2)CCN([C@H]2CC[C@@]4(CCCO4)CC2)C3)n1 [Compound 103] | 96 µg/mL (≈ 158 µM) | 78 µg/mL (≈ 128 µM) | 81 µg/mL (≈ 133 µM) |
| CCOc1c(C(=O)O)cnn1-c1cccc(-c2cccc(C)c2OCc2ccc3c(c2C)CCN([C@@H]2CCOC2)C3)n1 [Compound 126] | 96 µg/mL (≈ 169 µM) | 74 µg/mL (≈ 130 µM) | 78 µg/mL (≈ 137 µM) |
| COCCOc1c(C(=O)O)cnn1-c1cccc(-c2cccc(C)c2OCc2ccc3c(c2C)CCN(C2CCCOC2)C3)n1 (stereo not drawn) [Compound 149] | 110 µg/mL (≈ 180 µM) | 78 µg/mL (≈ 127 µM) | 81 µg/mL (≈ 132 µM) |
| CCOc1c(C(=O)O)cnn1-c1cccc(-c2cccc(C)c2OCc2cc3c(c(C(F)(F)F)c2)CN(C2CCOCC2)CC3)n1 [Compound 157] | 94 µg/mL (≈ 148 µM) | 70 µg/mL (≈ 110 µM) | 62 µg/mL (≈ 97.4 µM) |
